Assay results: patent publication US12331042B2, “Compounds suitable for the treatment and prophylaxis of muscle wasting and other conditions” (priority 2019, dated 2025)
“Also recorded” adds a separate entry of the source.

Experiments:
[1] = test system: C57BL/6N mice inoculated with B16F10 melanoma cells; experiment: Tumor mouse model (B16F10 melanoma); type: in vivo; settings: 0.1 weight-% in chow, vs tumor mice
Description: 8 weeks old female C57BL/6N mice were inoculated with B16F10 melanoma cells (9×10^5 cells) or saline (sham, n=10). Within the first 3 days after tumor inoculation, the B16F10 mice as well as the sham mice received regular chow. Then the B16F10 mice were randomly divided in three groups, where the first group received MyoMed-946 chow (Tumor+MyoMed-946, n=10), the second group received MyoMed-205 chow (Tumor+MyoMed-205, n=10) and the third group received an identical chow but without the addition of the selected compounds (Tumor, n=10). The compound concentration in the chow was 0.1 weight-%, resulting in a daily compound intake per mouse of about 3 mg. Also the sham group was fed with an identical chow but without the addition of the selected compound. Wire-hang tests (muscle function) were performed with each mouse 9, 16 and 23 days after tumor inoculation. For this purpose, a standard wire hang construction was used with a wire (length: of 40 cm, diameter: 2.5 mm) at a height of 70 cm above the floor. Under the center of the wire a large box with sawdust was placed. For testing, the mouse was hung to the wire with the two limbs and hang time was recorded. Each animal had three attempts for 180 sec. max each. After three attempts, the maximal holding impulse was calculated (hanging time×body weight).
Mice were sacrificed 25 days after tumor inoculation. […]

[2] = test system: porin, telethonin, MRPS-5, MuRF1, MuRF2, Tom20 expression; experiment: Western blot analysis of diaphragm, CHF mice; type: in vivo
Description: For western blot analyses, frozen diaphragm was homogenized in relaxing buffer (90 mmol/L HEPES, 126 mmol/L potassium chloride, 36 mmol/L sodium chloride, 1 mmol/L magnesium chloride, 50 mmol/L EGTA, 8 mmol/L ATP, and 10 mmol/L creatine phosphate, pH 7.4) containing a protease inhibitor mix (Inhibitor Mix M, Serva, Heidelberg, Germany) and sonicated. Protein concentration of the supernatant was determined (bicinchoninic acid assay, Pierce, Bonn, Germany), and aliquots (5-20 μg) were separated by sodium dodecyl sulfate-polyacrylamide gel electrophoresis. Proteins were transferred to a polyvinylidene fluoride membrane and incubated overnight at 4° C. using the following primary antibodies: porin and telethonin (both 1/1000, Abcam, Cambridge, UK), MRPS-5 ( 1/500, Thermo Fisher, Rockford, IL, USA), MuRF1 and MuRF2 (both 1/1000; commercially available from Myomedix, Neckargemünd, Germany), and Tom20 (1:200, Santa Cruz Biotechnologies, Heidelberg, Germany). Membranes were subsequently incubated with a horseradish peroxidase conjugated secondary antibody, specific bands were visualized by enzymatic chemiluminescence (Super Signal West Pico, Thermo Fisher Scientific Inc., Bonn, Germany), and densitometry was quantified using a one-dimensional scan software package (Scanalytics Inc., Rockville, MD, USA). Measurements were normalized to the loading control GAPDH ( 1/30000; HyTest Ltd, Turku, Finland) or α-tubulin (1:1000, Santa Cruz Biotechnologies). All data are presented as fold change relative to sham.

MuRF1 central fragment = experiment: Differential scanning fluorimetry (DSF) of MuRF1 central fragment; type: binding; settings: 100 μM compound, 1% DMSO in PBS, 75 μM protein; 65.8° C. with 1% DMSO alone
Description: The effect of compound MyoMed-946 on MuRF1 protein stability was determined in vitro by differential scanning fluorimetry (DSF).
“MuRF1 central fragment” was expressed as previously described (Mrosek M et al., FASEB J, 2007, 21, 1383-1392) and used in DSF experiments at 75 μM final concentration. Compound MyoMed-946 was diluted from a 10 mM stock in DMSO to 100 μM in PBS as DSF assay buffer, resulting in a final concentration of 1% DMSO. After 1 hour pre-incubation at room temperature, the aqueous protein solutions were soaked into capillaries and placed into a Prometheus NT.48 nanoDSF device (NanoTemper Technologies, Munich, Germany). Changes in the intrinsic tryptophan or tyrosine fluorescence that occurred after LED laser excitement upon protein unfolding in a thermal gradient was detected at 330 nm and 350 nm, respectively. […] The first derivative of the fluorescence wavelength ratio of 350/330 nm upon thermal protein unfolding was used to calculate transition midpoint (Tm) of single and multiple transition states.

[3] = test system: citrate synthase, succinate dehydrogenase, mitochondrial complex I, cytoplasmic enzymes; experiment: Enzyme activity measurements in diaphragm tissue, CHF mice; type: in vivo; settings: CHF+compound
Description: Diaphragmatic tissue was homogenized in relaxing buffer, and aliquots were used for enzyme activity measurements. Enzyme activities for lactate dehydrogenase (EC 1.1.1.27), pyruvate kinase (EC 2.7.1.40), succinate dehydrogenase (SDH, EC 1.3.5.1), citrate synthase (CS, EC 2.3.3.1), β-hydroxyacyl-COA dehydrogenase (EC 1.1.1.35), and mitochondrial complex I were measured spectrophotometrically as previously described in detail (Mukherjee et al., J Biol Chem, 1976, 251, 2155-2160; Vanderlinde et al., Ann Clin Lab Sci, 1985, 15, 13-31; Dzeja et al., Mol Cell Biochem, 1999, 201, 33-40; Takashi et al., Biochim Biohphys Acta, 1979, 574, 258-267; Schwarzer et al., J Physiol, 2014, 592, 3767-3782). Enzyme activity data are presented as the fold change relative to sham.

Structure (SMILES): Cc1cc(=O)oc2cc(OCc3ccc(C(=O)OCC(=O)NC(=O)NCc4ccco4)cc3)ccc12 [MyoMed-946, [2-(2-furylmethylcarbamoylamino)-2-oxo-ethyl] 4-[(4-methyl-2-oxo-chromen-7-yl)oxymethyl]benzoate]
- tumor induced skeletal muscle atrophy (TA muscle weight) ([1]; 25 days after inoculation, at least to certain extent): attenuated
- loss of muscle function in wire-hang test ([1]; 9, 16 and 23 days after inoculation): attenuated; also recorded: significantly attenuates the loss of muscle function
- TOM-20 expression ([2]; CHF+compound): attenuated; also recorded: modest, but statistically significant, improvement
- mitochondrial porin expression ([2]; CHF+compound): attenuated; also recorded: near-normal
- reduction of Mrps5 expression (Western blot) ([2]; CHF+compound vs CHF): reversed
- up-regulation of MuRF1 expression ([2]; CHF+compound vs CHF): attenuated; also recorded: prevented
- up-regulation of MuRF2 expression ([2]; CHF+compound vs CHF): attenuated; also recorded: prevented
- reduced expression of telethonin ([2]; trend (P=0.08) in CHF group): attenuated; also recorded: not evident
- main Tm of MuRF1 central fragment (MuRF1 central fragment): 52.5 °C
- citrate synthase enzyme activity ([3]; reduced by 21% in CHF vs sham): attenuated; also recorded: partially improved
- mitochondrial complex I enzyme activity ([3]; reduced by 27% in CHF vs sham): attenuated; also recorded: partially improved
- succinate dehydrogenase enzyme activity ([3]; reduced by 28% in CHF vs sham): attenuated; also recorded: partially improved
